Biological target: T1, Toll-like receptor 9 (Homo sapiens, UniProt Q9NR96)
T1 sequence (Q9NR96 whole entry): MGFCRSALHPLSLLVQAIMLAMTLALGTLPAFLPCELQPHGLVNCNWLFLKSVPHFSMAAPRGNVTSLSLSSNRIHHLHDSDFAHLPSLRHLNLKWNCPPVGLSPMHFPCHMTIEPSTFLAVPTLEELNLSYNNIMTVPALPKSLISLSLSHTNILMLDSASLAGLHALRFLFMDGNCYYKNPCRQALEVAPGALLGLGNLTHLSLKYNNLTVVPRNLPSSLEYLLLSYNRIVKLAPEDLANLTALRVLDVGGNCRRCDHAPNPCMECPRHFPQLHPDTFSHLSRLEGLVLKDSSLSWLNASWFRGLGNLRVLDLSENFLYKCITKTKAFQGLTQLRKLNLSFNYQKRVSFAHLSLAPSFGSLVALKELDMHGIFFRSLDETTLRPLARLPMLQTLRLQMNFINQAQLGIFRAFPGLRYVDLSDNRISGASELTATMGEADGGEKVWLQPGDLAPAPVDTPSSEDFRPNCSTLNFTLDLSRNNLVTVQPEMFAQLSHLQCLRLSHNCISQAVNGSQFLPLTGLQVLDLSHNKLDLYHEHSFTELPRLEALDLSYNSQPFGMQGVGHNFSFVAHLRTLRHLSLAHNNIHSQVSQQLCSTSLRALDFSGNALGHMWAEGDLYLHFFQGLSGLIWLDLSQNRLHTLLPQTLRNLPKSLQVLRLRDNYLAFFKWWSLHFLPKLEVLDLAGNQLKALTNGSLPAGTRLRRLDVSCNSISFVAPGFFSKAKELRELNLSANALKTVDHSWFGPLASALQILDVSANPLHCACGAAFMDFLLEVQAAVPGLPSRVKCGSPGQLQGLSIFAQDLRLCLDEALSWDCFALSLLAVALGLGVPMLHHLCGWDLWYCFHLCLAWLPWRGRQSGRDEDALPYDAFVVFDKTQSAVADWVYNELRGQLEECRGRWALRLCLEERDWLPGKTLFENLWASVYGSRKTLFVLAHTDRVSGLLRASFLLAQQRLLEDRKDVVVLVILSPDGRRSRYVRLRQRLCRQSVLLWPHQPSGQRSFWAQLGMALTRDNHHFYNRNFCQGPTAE
Assay: TLR9 Antagonism Assay: Day 1: A cell suspension of HEK-Blue™-hTLR9 cells at ~450,000 cells per ml in test medium which contained 5% (v/v) heat inactivated FBS was prepared. 180 μl of cell suspension (~80,000 cells) was added per well of a flat-bottom 96-well plate and place in an incubator at 37° C. for overnight. Day 2: Test compounds were serially diluted in test medium, generally starting at 10 μM, and diluting by 3 fold in a 96 well master plate. 20 μl of diluted test compound was transferred using a 12 channel multi-channel pipet to the cell plate and incubated at 37° C. for 1 hour. Then 20 μl of an hTLR9 agonist (such as ODN 2006, 1 μM) was added to each well and the plate incubated at 37° C. overnight. Day 3: Invivogen's QUANTI-Blue™ was prepared following the manufacturer's instructions. […] of resuspended QUANTI-Blue™ was added per well of a flat bottom 96-well plate. 20 μl per well of induced HEK-Blue™-hTLR9 cells supernatant was then added to the plate and the plate was incubated at 37° C. for 1-3 h. SEAP levels were determined using a spectrophotometer at 620 nm.

SMILES	IC50
Oc1nc2c(NCCN3CCOCC3)nc(-c3ccccc3)nc2n1CCN1CCOCC1	8.01 µM
c1ccc(-c2nc(NCCN3CCOCC3)c3ncn(CCN4CCOCC4)c3n2)cc1	7.53 µM
CCCCSc1nc(NCCN2CCOCC2)c2nc(O)n(CCN3CCOCC3)c2n1	11.1 µM
CN1CCN(c2ccc(-c3nc(NCCN4CCOCC4)c4nc[nH]c4n3)cc2)CC1	0.072 µM
CCOC(=O)Cn1cnc2c(NCCN3CCOCC3)nc(-c3ccc(N4CCN(C)CC4)cc3)nc21	5.2 µM
CCN1CCN(c2ccc(-c3nc(NCCN4CCOCC4)c4nc[nH]c4n3)cc2)CC1	0.142 µM
CN1CCN(CCNc2nc(-c3ccccc3)nc3c2ncn3CCN2CCOCC2)CC1	3.29 µM
CN1CCN(CCNc2nc(-c3ccccc3)nc3c2ncn3CCN2CCN(C)CC2)CC1	0.604 µM
